Source: patent US7547680B2, “Benzimidazole derivatives and medical uses thereof” (Kissei Pharmaceuticals, Co., Ltd., priority 2004, dated 2009)
pIC50: −log10 of the molar value.

What was measured:
human CNT2 = target: T1, human CNT2 (Homo sapiens, UniProt O43868, I160M/P22L/S45C); test: Inhibitory activity against uptake of adenosine through human CNT2; type: cell-based; conditions: COS-7 cells transiently expressing human CNT2; adenosine 10 μM; NBMPR 10 μM; incubation 30 minutes at 37° C.
T1 construct: expressed in transfected cells; host or cells: COS-7 cells (RIKEN CELL BANK RCB0539), transient lipofection of pCI-neo plasmid
T1 sequence (O43868 1-658 P22L/S45C/I160M): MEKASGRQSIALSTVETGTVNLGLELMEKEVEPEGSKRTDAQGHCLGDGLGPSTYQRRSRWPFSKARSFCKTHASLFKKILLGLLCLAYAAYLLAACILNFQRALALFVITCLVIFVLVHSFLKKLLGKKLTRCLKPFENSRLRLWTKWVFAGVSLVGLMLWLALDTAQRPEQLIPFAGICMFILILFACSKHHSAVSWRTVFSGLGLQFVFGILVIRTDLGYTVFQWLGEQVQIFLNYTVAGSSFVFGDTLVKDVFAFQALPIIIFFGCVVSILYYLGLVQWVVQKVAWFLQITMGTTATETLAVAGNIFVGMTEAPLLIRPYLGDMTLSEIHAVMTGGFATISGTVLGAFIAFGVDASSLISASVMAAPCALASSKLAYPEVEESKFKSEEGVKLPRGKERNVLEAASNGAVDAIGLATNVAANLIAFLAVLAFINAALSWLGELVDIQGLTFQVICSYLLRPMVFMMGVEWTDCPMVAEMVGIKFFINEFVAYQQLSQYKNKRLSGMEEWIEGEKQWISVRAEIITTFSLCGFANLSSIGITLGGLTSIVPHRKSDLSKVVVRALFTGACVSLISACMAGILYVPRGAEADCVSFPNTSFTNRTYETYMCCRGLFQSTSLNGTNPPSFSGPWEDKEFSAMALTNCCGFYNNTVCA
Procedure: Human CNT2 cDNA was obtained by PCR amplification of human kidney cDNA (CLONTECH). PCR reaction solution contained 1 μL cDNA, 2 units Platinum taq DNA polymerase high fidelity (Invitrogen), 1 μM primers (Forward: 5′-AGGAGCCAGAGGGAATCAAT-3′, Reverse: 5′-ACATCTTGGTGAGTGAGTTG-3′). Amplifications for 1 cycle at 94° C. for 2 minutes, 32 cycles at 94° C. for 30 seconds, 58° C. for 30 seconds and 68° C. for 3 minutes were performed and PCR products were ligated into PCR-II-TOPO vector (Invitrogen). PCR reaction was performed with primers containing restriction enzyme sites and the constructed plasmid as a template. PCR reaction solution contained 100 ng plasmid, 2 units Pyrobest DNA polymerase (Takara), 330 nM primers (Forward: 5′-CCGCTCGAGAGGAGCCAGAGGGAATCAAT-3′, Reverse: 5′-CGTCTAGAACATCTTGGTGAGTGAGTTG-3′). Amplifications for 1 cycle at 95° C. for 3 minutes, 15 cycles at 98° C. for 10 seconds, 60° C. for 30 seconds and 72° C. for 1 minute and 1 cycle at 72° C. for 7 minutes were performed, and the PCR products were ligated into PCI-neo mammalian expression vector (Promega). The amino acid sequence of cloned human CNT2 was substituted at P22L (codon, CCG to CTG), S45C (codon, AGC to TGC) and I160M (codon, ATA to ATG) compared to a reported amino acid sequence for human CNT2 (NCBI Accession No. AAC51930).
Expression plasmid of human CNT2 was transfected into COS-7 cells (RIKEN CELL BANK RCB0539) by lipofection method. LIPOFECTAMINE 2000 (Invitrogen) was used as a lipofection reagent. COS-7 cells were diluted in D-MEM (Invitrogen) containing 10% fetal calf serum (Sanko Junyaku) at 5×10^5/1 mL, and seeded into collagen-coated 96-well plates (IWAKI) at 100 μL/well and cultured at 37° C. for 2 hours with 5% CO2 condition. For each well, 0.6 μL of LIPOFECTAMINE 2000 (Invitrogen) was diluted in 25 μL of OPTI-MEM (Invitrogen), and incubated for 7 minutes at room temperature (hereinafter referred to as Lipo 2000-OPTI). For each well, 0.3 μg of plasmid was diluted in 25 μL of OPTI-MEM (Invitrogen), and the solution was added to the Lipo 2000-OPTI and mixed gently and incubated for 30 minutes at room temperature, and was transferred 50 μL for each well to culture medium. The cells were incubated at 37° C. with 5% CO2 condition for 2 days, and used for the uptake assays.
An Uptake buffer was prepared by addition of a mixture of non-radioisotope labeled (Sigma) and ^14C-labeled (Amersham Biosciences) adenosine at the final concentration of 10 μM into a buffer, pH 7.4, containing 140 mM sodium chloride, 2 mM potassium chloride, 1 mM calcium chloride, 1 mM magnesium chloride, 10 mM HEPES 2-[4-(2-hydroxyethyl)-1-piperazinyl]ethane sulfonic acid, 5 mM tris(hydroxymethyl)aminomethane and 5 mM glucose. For measurement of basal uptake, Basal uptake measurement buffer, which contained 140 mM choline chloride instead of sodium chloride was prepared. […]. After removing culture medium of human CNT2 transiently expressing cells, Pretreatment buffer (Basal uptake measurement buffer without adenosine and glucose) was added to wells at 200 μL/well and incubated at 37° C. for 10 minutes. After repeating the same step again, Pretreatment buffer was removed and Measurement buffers and Basal uptake measurement buffer were added at 75 μL/well and incubated at 37° C. After incubation for 30 minutes, Measurement buffers and Basal uptake measurement buffer were removed, and the cells were washed with Washing buffer (Basal uptake measurement buffer with non-radioisotope labeled adenosine at 10 μM) at 200 μL/well twice. The cells were solubilized with 0.2 mol/L sodium hydroxide at 75 μL/well, and the cell lysates were transferred into PicoPlates (Perkin Elmer). After mixing with 150 μL of MicroScint-40 (Perkin Elmer), radioactivity was measured by means of scintillation counter (Perkin Elmer). […]

[1] = Effects of CNT2 inhibitors on plasma uric acid level (purine tolerance test in rats); type: in vivo; conditions: Male SD-IGS rats; oxonic acid 100 mg/kg s.c.; purine mix 50 mg/kg and test compound 10 mg/kg orally; blood after 1 hour; control group = 100%; Example 28 by HPLC, Examples 89 and 90 by phosphotungstic acid method
Procedure: Male SD-IGS rats (5 weeks old) which were fasted overnight, were subcutaneously treated with oxonic acid (Aldrich; 100 mg/kg), and after 1 hour, purine mix (Adenosine:Inosine:Guanosine=1:1:1 (Adenosine (Sigma), Inosine (WAKO), Guanosine (ICN); 50 mg/kg) and test compounds (10 mg/kg) were orally administrated simultaneously. A control group was treated with oxonic acid and the purine mix, and a group administrated only oxonic acid represented endogenous plasma uric acid value. After 1 hour, blood was collected from the abdominal aorta under ether anesthesia, and the plasma was collected with Venoject II vacuum blood collecting tube (Terumo, VP-FH052). According to the method described in Journal of Chromatography B, Vol. 744 (2000), pp. 129-138, plasma uric acid level in a compound of Example 28 was measured by using HPLC method mentioned below. Plasma uric acid levels in compounds of Examples 89 and 90 were measured by phosphotungstic acid method. Uric acid-Test Wako (WAKO) was used as a measurement reagent. As there is no difference of uric acid values between the HPLC method and the phosphotungstic acid method, uric acid value can be measured by either of both methods (for example, see the above Management guideline, pp. 18-19). The difference between plasma uric acid value in each study group and endogenous plasma uric acid value was calculated on the basis of 100% in the control group.
Theophylline (10 μg) as an internal standard substance was added to 0.1 mL of plasma collected with the above method, and then the samples were deproteinized with 1 mL of methanol. After the samples were centrifuged, the methanol layers were evaporated to dryness under a stream of nitrogen. […] Plasma uric acid concentration was determined by HPLC method according to the condition described below. […]
• Column: Inertsil ODS-2 (4.6×250 mm) • Mobile phase • A solution: acetonitrile • B solution: 10 mM phosphate buffer (pH 3.0) • A linear gradient elution method: A solution 2% to A solution 22% (25 minutes) • Column temperature: 40° C. • Flow rate: 0.5 mL/minute • Detection absorbance: 284 nm

ENT2 = target: T2, ENT2 (Homo sapiens, UniProt Q14542); conditions: ENT2, high concentration of NBMPR; cited from earlier work
T2 sequence (Q14542 1-456): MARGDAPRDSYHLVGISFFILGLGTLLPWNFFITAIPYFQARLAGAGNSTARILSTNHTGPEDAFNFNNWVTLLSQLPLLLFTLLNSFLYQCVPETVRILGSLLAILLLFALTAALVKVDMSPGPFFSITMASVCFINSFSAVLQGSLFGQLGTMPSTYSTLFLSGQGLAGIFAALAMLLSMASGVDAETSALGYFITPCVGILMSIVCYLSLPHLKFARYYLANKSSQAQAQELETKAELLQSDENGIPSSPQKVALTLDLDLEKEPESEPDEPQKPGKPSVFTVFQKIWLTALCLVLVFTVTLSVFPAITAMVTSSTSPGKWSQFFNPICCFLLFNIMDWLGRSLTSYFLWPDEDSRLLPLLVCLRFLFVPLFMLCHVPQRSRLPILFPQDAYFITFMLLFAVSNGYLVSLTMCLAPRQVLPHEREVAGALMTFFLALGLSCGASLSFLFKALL

| Structure (SMILES) | pIC50 (human CNT2) | Percentage of increment of plasma uric acid level (%) [1] | pIC50 (ENT2) |
| --- | --- | --- | --- |
| OCCCCOc1cc(CNc2nc3ccccc3n2[C@@H]2O[C@H](CO)[C@@H](O)[C@H]2O)ccc1-c1ccccc1 [Example 28, 2-[3-(4-Hydroxybutoxy)-4-phenylbenzylamino]-1-(β-D-ribofuranosyl)-1H-benzimidazole] | 7.34 | 15.2% (p < 0.01) | – |
| CCOc1ccc(CNc2nc3ccccc3n2[C@@H]2O[C@H](CO)[C@@H](O)[C@H]2O)cc1OCCCCO [Example 34, 2-[4-Ethoxy-3-(4-hydroxybutoxy)benzylamino]-1-(β-D-ribofuranosyl)-1H-benzimidazole] | 6.98 | – | – |
| CCCOc1ccc(CNc2nc3ccccc3n2[C@@H]2O[C@H](CO)[C@@H](O)[C@H]2O)cc1OCCCCO [Example 36] | 6.82 | – | – |
| O=[N+]([O-])c1ccc(CSc2ncnc3c2ncn3C2OC(CO)C(O)C2O)cc1 (stereo not drawn) [NBMPR, nitrobenzylthioinosine] | – | – | < 6.00 |

The next lines start with results.

| pIC50 (human CNT2) | Structure (SMILES) | Percentage of increment of plasma uric acid level (%) [1] | pIC50 (ENT2) |
| --- | --- | --- | --- |
| 6.67 | CCCCOc1ccc(CNc2nc3ccccc3n2[C@@H]2O[C@H](CO)[C@@H](O)[C@H]2O)cc1OCCCCO [Example 37] | – | – |
| 8.05 | NCCCOc1cc(CNc2nc3ccccc3n2[C@@H]2O[C@H](CO)[C@@H](O)[C@H]2O)ccc1-c1ccccc1 [Example 51, 2-[3-(3-Aminopropoxy)-4-phenylbenzylamino]-1-(β-D-ribofuranosyl)-1H-benzimidazole] | – | – |
| 7.26 | NC(=O)C1CCN(CCCOc2cccc(CNc3nc4ccccc4n3[C@@H]3O[C@H](CO)[C@@H](O)[C@H]3O)c2)CC1 [Example 89, 2-{3-[3-(4-Carbamoylpiperidin-1-yl)propoxy]benzylamino}-1-(β-D-ribofuranosyl)-1H-benzimidazole] | 24.9% (p < 0.01) | – |
| 6.74 | CN(C)CCCOc1cccc(CNc2nc3ccccc3n2[C@@H]2O[C@H](CO)[C@@H](O)[C@H]2O)c1 [Example 90] | 45.6% (p < 0.05) | – |
| 6.76 | C[N+](C)(CCO)CCCOc1cccc(CNc2nc3ccccc3n2[C@@H]2O[C@H](CO)[C@@H](O)[C@H]2O)c1 [Example 93] | – | – |
